# Legend:
# [1] = target: T1, Cyclin-dependent kinase-like 2 (Homo sapiens) (UniProt Q92772); experiment: Selectivity interaction (KinomeScan (DiscoverX)) EUB0000229b CDKL2; details: at 10 µM
# T1 sequence (whole entry): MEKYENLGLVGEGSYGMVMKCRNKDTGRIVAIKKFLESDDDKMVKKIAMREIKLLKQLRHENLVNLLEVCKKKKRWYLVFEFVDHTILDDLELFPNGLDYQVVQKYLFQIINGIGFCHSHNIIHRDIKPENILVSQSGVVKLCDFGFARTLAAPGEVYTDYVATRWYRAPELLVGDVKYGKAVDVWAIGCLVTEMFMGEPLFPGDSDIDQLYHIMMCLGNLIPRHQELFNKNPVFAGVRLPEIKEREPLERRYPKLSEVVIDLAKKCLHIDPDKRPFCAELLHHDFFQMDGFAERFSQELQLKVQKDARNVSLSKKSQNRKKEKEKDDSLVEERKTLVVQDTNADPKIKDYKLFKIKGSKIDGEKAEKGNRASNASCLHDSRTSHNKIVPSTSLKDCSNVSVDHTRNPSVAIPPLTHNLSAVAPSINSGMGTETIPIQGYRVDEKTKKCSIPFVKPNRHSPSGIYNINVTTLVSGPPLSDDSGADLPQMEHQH
# [2] = target: Death-associated protein kinase 1 (Homo sapiens, UniProt P53355); experiment: Selectivity interaction (KinomeScan (DiscoverX)) EUB0000092b DAPK1; details: at 10 µM
# [3] = target: Mitogen-activated protein kinase 7 (Homo sapiens) (UniProt Q13164); experiment: Selectivity interaction (KinomeScan (DiscoverX)) EUB0000092b MAPK7; details: at 10 µM
# [4] = target: Microtubule-associated serine/threonine-protein kinase 1 (Homo sapiens) (UniProt Q9Y2H9); experiment: Selectivity interaction (KinomeScan (DiscoverX)) EUB0000092b MAST1; details: at 10 µM
# [5] = target: Tyrosine-protein kinase ABL2 (Homo sapiens, UniProt P42684); experiment: Selectivity interaction (Upstate Kinase Profiler service (Millipore)) EUB0000056c ABL2; details: at 1 µM
# [6] = target: Insulin receptor-related protein (Homo sapiens) (UniProt P14616); experiment: Selectivity interaction (Upstate Kinase Profiler service (Millipore)) EUB0000056c INSRR; details: at 1 µM
# [7] = target: Protein kinase C delta type (Homo sapiens) (UniProt Q05655); experiment: Selectivity interaction (Upstate Kinase Profiler service (Millipore)) EUB0000056c PRKCD; details: at 1 µM
# [8] = target: Protein kinase C theta type (Homo sapiens, UniProt Q04759); experiment: Selectivity interaction (Upstate Kinase Profiler service (Millipore)) EUB0000056c PRKCQ; details: at 1 µM
# [9] = target: Platelet-derived growth factor receptor alpha (Homo sapiens, UniProt P16234); experiment: Selectivity interaction (Kinase panel (33PanQinase(R) Activity Assay)) EUB0000877a PDGFRA
# [10] = tested on: Epidermal growth factor receptor (Homo sapiens), P00533 [UNDEFINED MUTATION]; details: at 10 µM
# [11] = target: T2, Phosphatidylinositol 5-phosphate 4-kinase type-2 gamma (Homo sapiens) (UniProt Q8TBX8); experiment: Selectivity interaction (ActivX KiNativ screen (kinase selectivity in THP-1 cell lysates)) EUB0000639a PIP4K2C; type: subcellular; details: lysate, at 0.01 µM
# T2 sequence (whole entry): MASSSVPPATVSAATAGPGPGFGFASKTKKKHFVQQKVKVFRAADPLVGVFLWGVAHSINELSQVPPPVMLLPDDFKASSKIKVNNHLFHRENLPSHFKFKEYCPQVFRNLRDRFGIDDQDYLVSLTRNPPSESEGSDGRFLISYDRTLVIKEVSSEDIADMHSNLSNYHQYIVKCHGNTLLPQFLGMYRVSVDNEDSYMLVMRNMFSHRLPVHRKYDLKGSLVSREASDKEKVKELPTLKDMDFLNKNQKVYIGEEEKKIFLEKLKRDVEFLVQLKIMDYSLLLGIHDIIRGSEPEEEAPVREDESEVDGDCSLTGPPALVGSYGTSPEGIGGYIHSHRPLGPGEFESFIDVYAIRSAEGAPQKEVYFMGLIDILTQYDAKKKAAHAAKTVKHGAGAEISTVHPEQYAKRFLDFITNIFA
# [12] = target: T3, Ephrin type-A receptor 8 (Homo sapiens) (UniProt P29322); experiment: Selectivity interaction (KinomeScan (DiscoverX)) EUB0001049a EPHA8; details: at 1 µM
# T3 sequence (whole entry): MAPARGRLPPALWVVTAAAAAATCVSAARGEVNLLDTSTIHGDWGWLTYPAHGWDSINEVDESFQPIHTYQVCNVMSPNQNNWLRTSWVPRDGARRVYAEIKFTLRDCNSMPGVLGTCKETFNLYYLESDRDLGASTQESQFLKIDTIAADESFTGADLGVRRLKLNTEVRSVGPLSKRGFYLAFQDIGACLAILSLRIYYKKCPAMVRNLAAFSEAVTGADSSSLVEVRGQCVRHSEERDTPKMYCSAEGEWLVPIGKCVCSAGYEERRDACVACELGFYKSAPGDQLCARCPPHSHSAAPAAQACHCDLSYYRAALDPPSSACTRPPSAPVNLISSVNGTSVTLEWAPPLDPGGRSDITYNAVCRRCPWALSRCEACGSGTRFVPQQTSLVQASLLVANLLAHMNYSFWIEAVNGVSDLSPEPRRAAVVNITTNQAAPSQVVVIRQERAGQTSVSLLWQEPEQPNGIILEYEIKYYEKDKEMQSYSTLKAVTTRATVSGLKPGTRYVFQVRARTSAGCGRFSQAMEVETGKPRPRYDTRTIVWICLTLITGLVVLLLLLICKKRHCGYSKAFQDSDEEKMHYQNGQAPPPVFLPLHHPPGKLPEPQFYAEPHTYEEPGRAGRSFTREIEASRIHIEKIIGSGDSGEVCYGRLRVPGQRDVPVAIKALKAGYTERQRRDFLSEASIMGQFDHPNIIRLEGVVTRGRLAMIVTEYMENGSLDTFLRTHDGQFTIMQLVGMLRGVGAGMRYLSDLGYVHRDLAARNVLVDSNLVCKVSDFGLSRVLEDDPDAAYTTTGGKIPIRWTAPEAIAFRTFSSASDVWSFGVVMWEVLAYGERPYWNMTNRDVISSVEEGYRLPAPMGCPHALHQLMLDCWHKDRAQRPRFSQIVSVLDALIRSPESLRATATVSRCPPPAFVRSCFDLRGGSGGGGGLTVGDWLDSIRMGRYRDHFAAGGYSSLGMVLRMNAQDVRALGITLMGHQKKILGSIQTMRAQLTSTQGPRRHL
# [13] = target: Serine/threonine-protein kinase 32B (Homo sapiens) (UniProt Q9NY57); experiment: Selectivity interaction (KinomeScan (DiscoverX)) EUB0001049a STK32B; details: at 1 µM
# [14] = target: Phosphatidylinositol 3-kinase catalytic subunit type 3 (Homo sapiens, UniProt Q8NEB9); experiment: Selectivity interaction (KinomeScan (DiscoverX)) EUB0000695a PIK3C3; details: at 100 nM
# [15] = target: Dual specificity protein kinase CLK4 (Homo sapiens, UniProt Q9HAZ1); experiment: Selectivity interaction (KinomeScan (DiscoverX)) EUB0001619a CLK4; details: at 1 µM
# [16] = target: Mitogen-activated protein kinase kinase kinase kinase 5 (Homo sapiens) (UniProt Q9Y4K4); experiment: Selectivity interaction (KinomeScan (DiscoverX)) EUB0001619a MAP4K5; details: at 1 µM
# Mitogen-activated protein kinase kinase kinase kinase 5 (Homo sapiens), sequence (Q9Y4K4 whole entry, looked up): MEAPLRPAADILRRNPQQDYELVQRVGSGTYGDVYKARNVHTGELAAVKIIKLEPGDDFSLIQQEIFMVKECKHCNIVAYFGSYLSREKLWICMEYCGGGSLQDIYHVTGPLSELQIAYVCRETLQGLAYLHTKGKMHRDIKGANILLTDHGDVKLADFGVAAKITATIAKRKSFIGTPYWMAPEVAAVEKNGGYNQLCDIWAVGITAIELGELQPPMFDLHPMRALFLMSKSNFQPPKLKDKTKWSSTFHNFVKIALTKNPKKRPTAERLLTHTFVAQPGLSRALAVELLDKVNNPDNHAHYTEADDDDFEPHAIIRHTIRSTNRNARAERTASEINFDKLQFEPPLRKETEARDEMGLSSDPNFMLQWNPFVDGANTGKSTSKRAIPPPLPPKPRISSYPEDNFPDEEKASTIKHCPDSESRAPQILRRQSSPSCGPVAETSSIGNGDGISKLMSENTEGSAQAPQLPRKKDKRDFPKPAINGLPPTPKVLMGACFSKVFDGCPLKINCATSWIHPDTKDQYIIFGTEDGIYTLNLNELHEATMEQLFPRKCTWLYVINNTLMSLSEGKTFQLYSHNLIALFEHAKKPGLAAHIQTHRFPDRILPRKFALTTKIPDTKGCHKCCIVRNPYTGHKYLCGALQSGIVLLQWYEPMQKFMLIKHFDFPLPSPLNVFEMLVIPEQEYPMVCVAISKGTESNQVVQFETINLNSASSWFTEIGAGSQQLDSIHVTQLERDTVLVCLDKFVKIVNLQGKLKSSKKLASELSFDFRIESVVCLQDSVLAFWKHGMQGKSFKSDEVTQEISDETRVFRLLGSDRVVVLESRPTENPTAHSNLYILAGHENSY
# Protein kinase C delta type (Homo sapiens), sequence (Q05655 whole entry, looked up): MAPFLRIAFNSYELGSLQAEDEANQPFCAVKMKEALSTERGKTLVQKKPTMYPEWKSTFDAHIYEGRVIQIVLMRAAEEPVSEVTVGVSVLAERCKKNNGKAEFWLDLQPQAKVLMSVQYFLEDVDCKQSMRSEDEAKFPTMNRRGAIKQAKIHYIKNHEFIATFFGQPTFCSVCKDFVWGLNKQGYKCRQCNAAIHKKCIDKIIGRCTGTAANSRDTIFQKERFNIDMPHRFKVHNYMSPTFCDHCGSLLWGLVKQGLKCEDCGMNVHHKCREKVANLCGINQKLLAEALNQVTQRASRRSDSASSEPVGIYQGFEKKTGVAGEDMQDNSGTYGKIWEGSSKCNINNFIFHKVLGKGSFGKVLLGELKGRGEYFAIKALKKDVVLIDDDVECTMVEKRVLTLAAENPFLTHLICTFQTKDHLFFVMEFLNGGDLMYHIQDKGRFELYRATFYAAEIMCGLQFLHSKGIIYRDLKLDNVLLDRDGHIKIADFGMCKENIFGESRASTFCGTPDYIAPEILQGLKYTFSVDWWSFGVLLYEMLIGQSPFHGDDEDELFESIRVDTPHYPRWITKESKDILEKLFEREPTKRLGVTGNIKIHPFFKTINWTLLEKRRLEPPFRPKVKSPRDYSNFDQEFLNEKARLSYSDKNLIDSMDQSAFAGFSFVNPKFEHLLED
# Epidermal growth factor receptor (Homo sapiens), P00533 [UNDEFINED MUTATION], sequence (P00533 whole entry, looked up, change not shown): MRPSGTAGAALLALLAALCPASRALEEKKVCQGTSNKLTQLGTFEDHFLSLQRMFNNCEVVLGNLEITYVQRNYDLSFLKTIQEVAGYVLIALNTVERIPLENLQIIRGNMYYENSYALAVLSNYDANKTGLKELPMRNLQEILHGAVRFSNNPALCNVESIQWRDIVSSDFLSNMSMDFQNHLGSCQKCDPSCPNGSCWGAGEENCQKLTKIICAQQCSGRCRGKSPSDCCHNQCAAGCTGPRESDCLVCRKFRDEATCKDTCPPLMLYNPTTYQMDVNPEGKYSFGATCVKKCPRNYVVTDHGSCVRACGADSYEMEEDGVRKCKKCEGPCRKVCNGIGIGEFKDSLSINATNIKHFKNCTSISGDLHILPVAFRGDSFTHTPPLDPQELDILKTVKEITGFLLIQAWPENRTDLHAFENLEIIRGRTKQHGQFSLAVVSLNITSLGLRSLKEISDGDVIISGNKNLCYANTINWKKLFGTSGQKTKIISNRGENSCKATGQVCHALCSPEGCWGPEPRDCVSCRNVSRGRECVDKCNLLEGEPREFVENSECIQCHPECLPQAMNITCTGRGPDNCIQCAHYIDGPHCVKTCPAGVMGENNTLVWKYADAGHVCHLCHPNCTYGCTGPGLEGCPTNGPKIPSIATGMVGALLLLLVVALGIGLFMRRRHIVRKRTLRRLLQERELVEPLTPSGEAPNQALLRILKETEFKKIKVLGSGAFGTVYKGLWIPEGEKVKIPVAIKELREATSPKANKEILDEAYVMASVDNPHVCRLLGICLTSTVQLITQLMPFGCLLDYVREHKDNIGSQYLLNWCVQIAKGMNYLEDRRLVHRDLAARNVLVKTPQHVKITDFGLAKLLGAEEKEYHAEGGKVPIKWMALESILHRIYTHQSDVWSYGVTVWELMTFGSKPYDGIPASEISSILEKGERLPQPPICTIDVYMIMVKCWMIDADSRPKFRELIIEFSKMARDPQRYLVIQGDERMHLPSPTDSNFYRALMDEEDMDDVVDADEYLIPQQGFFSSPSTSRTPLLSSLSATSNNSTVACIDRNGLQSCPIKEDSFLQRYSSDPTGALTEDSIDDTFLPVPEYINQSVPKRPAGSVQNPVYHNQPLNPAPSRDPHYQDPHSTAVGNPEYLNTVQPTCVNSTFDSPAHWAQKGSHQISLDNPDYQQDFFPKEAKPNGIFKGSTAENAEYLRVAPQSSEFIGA
# Insulin receptor-related protein (Homo sapiens), sequence (P14616 27-742 limits assumed): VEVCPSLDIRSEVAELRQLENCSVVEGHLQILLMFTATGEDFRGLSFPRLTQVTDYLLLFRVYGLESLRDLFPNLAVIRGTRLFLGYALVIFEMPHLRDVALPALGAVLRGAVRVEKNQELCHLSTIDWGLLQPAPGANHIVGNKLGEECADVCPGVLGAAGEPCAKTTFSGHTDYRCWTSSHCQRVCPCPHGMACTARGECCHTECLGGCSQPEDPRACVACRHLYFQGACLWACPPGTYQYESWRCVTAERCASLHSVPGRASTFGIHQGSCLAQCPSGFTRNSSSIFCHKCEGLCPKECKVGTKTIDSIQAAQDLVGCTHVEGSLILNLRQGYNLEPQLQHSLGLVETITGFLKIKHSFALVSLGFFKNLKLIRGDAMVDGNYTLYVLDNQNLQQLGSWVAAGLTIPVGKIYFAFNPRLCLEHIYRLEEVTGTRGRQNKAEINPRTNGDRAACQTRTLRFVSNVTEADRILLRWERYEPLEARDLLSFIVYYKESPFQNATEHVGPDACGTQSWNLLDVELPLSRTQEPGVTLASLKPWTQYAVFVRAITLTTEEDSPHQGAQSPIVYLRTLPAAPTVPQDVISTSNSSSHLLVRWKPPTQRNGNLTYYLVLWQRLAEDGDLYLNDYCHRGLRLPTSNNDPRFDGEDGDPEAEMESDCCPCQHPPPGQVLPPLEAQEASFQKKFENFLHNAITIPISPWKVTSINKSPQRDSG
# Insulin receptor-related protein (Homo sapiens), sequence (P14616 747-1297 limits assumed): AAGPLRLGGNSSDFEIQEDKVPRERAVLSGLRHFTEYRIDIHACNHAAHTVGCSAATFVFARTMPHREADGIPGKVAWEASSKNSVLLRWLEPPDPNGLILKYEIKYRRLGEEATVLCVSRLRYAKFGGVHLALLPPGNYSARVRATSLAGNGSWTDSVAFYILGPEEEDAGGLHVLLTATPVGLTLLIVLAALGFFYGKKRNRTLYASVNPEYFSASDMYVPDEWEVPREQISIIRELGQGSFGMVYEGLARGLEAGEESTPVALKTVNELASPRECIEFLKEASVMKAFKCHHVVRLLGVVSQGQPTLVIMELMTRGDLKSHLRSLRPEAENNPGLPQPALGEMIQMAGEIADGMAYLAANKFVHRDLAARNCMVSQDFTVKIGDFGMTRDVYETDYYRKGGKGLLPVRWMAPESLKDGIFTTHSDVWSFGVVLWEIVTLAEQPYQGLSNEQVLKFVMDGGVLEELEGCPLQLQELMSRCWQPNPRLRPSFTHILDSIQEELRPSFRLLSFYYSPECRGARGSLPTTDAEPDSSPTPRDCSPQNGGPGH
# Protein kinase C theta type, sequence (Q04759 whole entry, looked up): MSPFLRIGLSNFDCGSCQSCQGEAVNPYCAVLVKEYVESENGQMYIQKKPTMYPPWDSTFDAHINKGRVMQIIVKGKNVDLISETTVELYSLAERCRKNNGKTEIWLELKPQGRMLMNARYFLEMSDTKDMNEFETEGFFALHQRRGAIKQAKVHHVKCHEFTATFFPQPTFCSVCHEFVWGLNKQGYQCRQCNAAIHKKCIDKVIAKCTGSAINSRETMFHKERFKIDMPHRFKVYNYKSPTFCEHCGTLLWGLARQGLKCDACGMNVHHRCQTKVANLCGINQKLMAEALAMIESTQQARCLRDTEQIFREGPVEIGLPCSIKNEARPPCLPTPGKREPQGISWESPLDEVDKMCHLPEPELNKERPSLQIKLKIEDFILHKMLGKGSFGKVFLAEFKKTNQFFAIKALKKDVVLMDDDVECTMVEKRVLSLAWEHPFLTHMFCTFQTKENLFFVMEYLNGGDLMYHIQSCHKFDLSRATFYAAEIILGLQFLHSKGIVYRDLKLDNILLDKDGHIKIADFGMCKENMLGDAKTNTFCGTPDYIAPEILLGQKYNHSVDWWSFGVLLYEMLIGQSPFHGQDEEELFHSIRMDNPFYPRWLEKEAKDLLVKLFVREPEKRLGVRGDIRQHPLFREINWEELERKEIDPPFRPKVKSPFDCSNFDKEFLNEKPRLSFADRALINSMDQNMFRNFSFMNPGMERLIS
structure (smiles),measurement,setting,value
COc1cc(N(C)c2ccnc3ccc(C(F)(F)F)cc23)cc(OC)c1OC,% binding,[1],90%
CCC(=O)N1CCN(c2ccc(-n3c(=O)ccc4cnc5ccc(-c6cnc7ccccc7c6)cc5c43)cc2C(F)(F)F)CC1,% of control,[2],96%
same,% of control,[3],100%
same,% of control,[4],93%
Cc1ccc(-c2ccc3c(ccc4sc5c(c43)NC[C@@H](C)NC5=O)n2)cn1,% of inhibition,[5],13%
same,% of inhibition,[6],-8%
same,% of inhibition,[7],33%
same,% of inhibition,[8],27%
CCC(=O)N1CC[C@H](Nc2ncnc3c2CN(c2cnc(OC)c(C(F)(F)F)c2)CC3)C1 [LENIOLISIB],IC50,[9],> 10 µM
Cc1cc([C@@H](C)Nc2ccccc2C(=O)O)c2nc(N3CCOCC3)cc(=O)n2c1 [AZD-6482],% of control,[10],100%
CC[C@@H]1[C@H](F)C(=O)N[C@@H]1COc1nccc2cc(C(N)=O)c(OC)cc12 [ZIMLOVISERTIB],% of inhibition,[11],7.3%
COc1cc(Nc2nc(C)cc(-c3cnn4nc(OC)ccc34)n2)cc(C(F)(F)F)c1,% of control,[12],81%
same,% of control,[13],100%
Cc1cc(F)c(C(=O)Nc2cccc(-c3nncn3C(C)C)n2)cc1-n1cnc(C2CC2)c1,% of control,[14],88%
N#Cc1cccc(-c2c[nH]c3ncnc(N4CCOCC4)c23)c1,% of control,[15],38%
same,% of control,[16],53%
